One data set relates to Candida parapsilosis. Put plainly: Antifungal activity against Candida parapsilosis ATCC 22019 after 24 hrs by CLSI broth microdilution method. It counts as functional, organism-based. The settings on record: Lodderomyces parapsilosis, ATCC 22019, 24 h. (Broth dilution looks for growth in wells or tubes with falling amounts of substance.)
In another data set the test system is Candida albicans. Put plainly: Antifungal activity against Candida albicans ATCC 10231 after 24 hrs by CLSI broth microdilution method. It counts as functional, organism-based. To be noted: ATCC 10231, 24 h.
The test system of a further data set is Nakaseomyces glabratus. Kind of data set: Antifungal activity against Candida glabrata ATCC 90030 after 24 hrs by CLSI broth microdilution method. To be noted: ATCC 90030, 24 h. The class given is functional, organism-based.
Data set [1] in a line: Cytotoxicity against BHK21 cells assessed as reduction in cell viability after 48 hrs by MTT assay. The class given is cell-based, Mesocricetus auratus, BHK-21. To be noted: hamster.
Data set [2] has as its system Staphylococcus aureus. Kind of data set: Antibacterial activity against Staphylococcus aureus ATCC 6538 after 24 hrs by CLSI broth microdilution method. The class given is functional, organism-based. To be noted: ATCC 6538, 24 h.
A short description of data set [3]: Selectivity index, ratio of CC50 for BHK21 cells to IC50 for Staphylococcus aureus ATCC 6538. The class given is toxicity. To be noted: hamster, read-out: Ratio CC50/IC50.
A further data set deals with Candida tropicalis. Kind of data set: Antifungal activity against Candida tropicalis ATCC 750 after 24 hrs by CLSI broth microdilution method. The class given is functional, organism-based. The settings on record: ATCC 750, 24 h.
The nature of data set [4]: Selectivity index, ratio of CC50 for BHK21 cells to IC50 for Candida tropicalis ATCC 750. It counts as toxicity. The settings on record: hamster, read-out: Ratio CC50/IC50.
Data set [5] can be described thus: Selectivity index, ratio of CC50 for BHK21 cells to IC50 for Candida parapsilosis ATCC 22019. The settings on record: hamster, read-out: Ratio CC50/IC50. The class given is toxicity.
Data set [6] in a line: Selectivity index, ratio of CC50 for BHK21 cells to IC50 for Candida albicans ATCC 10231. The class given is toxicity. The settings on record: hamster, read-out: Ratio CC50/IC50.
The test system of data set [7] is Staphylococcus aureus. Put plainly: Potency index, ratio of piplartine IC50 to test compound IC50 for Staphylococcus aureus ATCC 6538. The class given is functional.
A short description of data set [8]: Selectivity index, ratio of CC50 for BHK21 cells to IC50 for Candida glabrata ATCC 90030. It counts as toxicity. To be noted: hamster, read-out: Ratio CC50/IC50.

In general, IC50 refers to the concentration at which inhibition is half-maximal. Read a low IC50 as greater potency in that assay. The CC50 is the concentration that lowers cell viability or growth by half. `O=C(/C=C/c1ccccc1)NNC(=O)c1ccccc1`: the IC50 amounted to 376 µM with Candida parapsilosis; 376 µM with Candida albicans; 376 µM in the data set with Nakaseomyces glabratus; 85.2 µM in the data set with Staphylococcus aureus [2]; 376 µM with Candida tropicalis. Moreover, the CC50 at 48 h in [1] came to 232 µM. Further, the selectivity ratio worked out at 2.71 in [3]; 0.61 in data set [4]; 0.61 in data set [5]; 0.61 in data set [6]; 0.61 in data set [8]. In the data set with Staphylococcus aureus [7], the “Ratio IC50” value is 3.

(Values after ChEMBL document CHEMBL4346712, “Research progress in the biological activities of 3,4,5-trimethoxycinnamic acid (TMCA) derivatives” (Eur J Med Chem, 2019).)
